Source: patent US9944602B2, “Piperidinone herbicides” (E. I. DU PONT DE NEMOURS AND COMPANY, priority 2014, dated 2018)

Legend:
Format in all cases: in vivo
[1] = tested on: barnyardgrass (Echinochloa crus-galli); experiment: Test A preemergence barnyardgrass; details: Echinochloa crus-galli, pre-emergence, 240 h, 0 to 100 scale, 0 no effect, 100 complete control, read-out: Barnyardgrass plant response rating; for pest or weed control at 125 g/ha: 125 g ai/ha; for pest or weed control at 500 g/ha: 500 g ai/ha
How it was run: (§1)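 Seeds sown in loam–sand blend received a directed preemergence soil spray; postemergence plants (2–10 cm, one- to two-leaf stage) were sprayed in the same soil. Chemicals were formulated in non-phytotoxic solvent with surfactant. After ~10 d in greenhouse, injury was rated visually against untreated controls, 0 (no effect) to 100 (complete control).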

[2] = tested on: kochia (Kochia scoparia); experiment: Test A preemergence kochia; details: Bassia scoparia, pre-emergence, 240 h, 0 to 100 scale, 0 no effect, 100 complete control, read-out: Kochia plant response rating; for pest or weed control at 125 g/ha: 125 g ai/ha; for pest or weed control at 500 g/ha: 500 g ai/ha
How it was run: as §1

[3] = tested on: ragweed (common ragweed, Ambrosia elatior); experiment: Test A preemergence ragweed; details: Ambrosia artemisiifolia, pre-emergence, 240 h, 0 to 100 scale, 0 no effect, 100 complete control, read-out: Ragweed plant response rating; for pest or weed control at 125 g/ha: 125 g ai/ha; for pest or weed control at 500 g/ha: 500 g ai/ha
How it was run: as §1

[4] = tested on: ryegrass, Italian (Italian ryegrass, Lolium multiflorum); experiment: Test A preemergence ryegrass, Italian; details: Lolium multiflorum, pre-emergence, 240 h, 0 to 100 scale, 0 no effect, 100 complete control, read-out: Ryegrass, Italian plant response rating; for pest or weed control at 125 g/ha: 125 g ai/ha; for pest or weed control at 500 g/ha: 500 g ai/ha
How it was run: as §1

[5] = tested on: foxtail, giant (giant foxtail, Setaria faberii); experiment: Test A preemergence foxtail, giant; details: Setaria faberi, pre-emergence, 240 h, 0 to 100 scale, 0 no effect, 100 complete control, read-out: Foxtail, Giant plant response rating; for pest or weed control at 125 g/ha: 125 g ai/ha; for pest or weed control at 500 g/ha: 500 g ai/ha
How it was run: as §1

[6] = tested on: pigweed (Amaranthus retroflexus); experiment: Test A preemergence pigweed; details: Amaranthus retroflexus, pre-emergence, 240 h, 0 to 100 scale, 0 no effect, 100 complete control, read-out: Pigweed plant response rating; for pest or weed control at 125 g/ha: 125 g ai/ha; for pest or weed control at 500 g/ha: 500 g ai/ha
How it was run: as §1

[7] = tested on: barnyardgrass (Echinochloa crus-galli); experiment: Test A postemergence barnyardgrass; details: Echinochloa crus-galli, post-emergence, 240 h, 0 to 100 scale, 0 is no effect, 100 is complete control, read-out: Plant response rating, Barnyardgrass; for pest or weed control at 125 g/ha: 125 g ai/ha; for pest or weed control at 500 g/ha: 500 g ai/ha
How it was run: as §1

[8] = tested on: kochia (Kochia scoparia); experiment: Test A postemergence kochia; details: Bassia scoparia, post-emergence, 240 h, 0 to 100 scale, 0 is no effect, 100 is complete control, read-out: Plant response rating, Kochia; for pest or weed control at 125 g/ha: 125 g ai/ha; for pest or weed control at 500 g/ha: 500 g ai/ha
How it was run: as §1

[9] = tested on: ragweed (common ragweed, Ambrosia elatior); experiment: Test A postemergence ragweed; details: Ambrosia artemisiifolia, post-emergence, 240 h, 0 to 100 scale, 0 is no effect, 100 is complete control, read-out: Plant response rating, Ragweed; for pest or weed control at 125 g/ha: 125 g ai/ha; for pest or weed control at 500 g/ha: 500 g ai/ha
How it was run: as §1

[10] = tested on: ryegrass, Italian (Italian ryegrass, Lolium multiflorum); experiment: Test A postemergence ryegrass, Italian; details: Lolium multiflorum, post-emergence, 240 h, 0 to 100 scale, 0 is no effect, 100 is complete control, read-out: Plant response rating, Ryegrass, Italian; for pest or weed control at 125 g/ha: 125 g ai/ha; for pest or weed control at 500 g/ha: 500 g ai/ha
How it was run: as §1

[11] = tested on: foxtail, giant (giant foxtail, Setaria faberii); experiment: Test A postemergence foxtail, giant; details: Setaria faberi, post-emergence, 240 h, 0 to 100 scale, 0 is no effect, 100 is complete control, read-out: Plant response rating, Foxtail, Giant; for pest or weed control at 125 g/ha: 125 g ai/ha; for pest or weed control at 500 g/ha: 500 g ai/ha
How it was run: as §1

[12] = tested on: pigweed (Amaranthus retroflexus); experiment: Test A postemergence pigweed; details: Amaranthus retroflexus, post-emergence, 240 h, 0 to 100 scale, 0 is no effect, 100 is complete control, read-out: Plant response rating, Pigweed; for pest or weed control at 125 g/ha: 125 g ai/ha; for pest or weed control at 500 g/ha: 500 g ai/ha
How it was run: as §1

[13] = tested on: wheat (Triticum aestivum); experiment: Test A postemergence wheat; details: Triticum aestivum, post-emergence, 240 h, 0 to 100 scale, 0 is no effect, 100 is complete control, read-out: Plant response rating, Wheat; for plant injury at 125 g/ha: 125 g ai/ha; for plant injury at 500 g/ha: 500 g ai/ha
How it was run: as §1

[14] = tested on: corn (Zea mays); experiment: Test A postemergence corn; details: Zea mays, post-emergence, 240 h, 0 to 100 scale, 0 is no effect, 100 is complete control; for Corn plant response rating (crop injury, 0 = no effect, 100 = complete kill) at 125 g/ha: 125 g ai/ha; for Corn plant response rating (crop injury, 0 = no effect, 100 = complete kill) at 500 g/ha: 500 g ai/ha
How it was run: as §1

[15] = tested on: blackgrass (Alopecurus myosuroides); experiment: Test A postemergence blackgrass; details: Alopecurus myosuroides, post-emergence, 240 h, 0 to 100 scale, 0 is no effect, 100 is complete control, read-out: Plant response rating, Blackgrass; for pest or weed control at 125 g/ha: 125 g ai/ha; for pest or weed control at 500 g/ha: 500 g ai/ha
How it was run: as §1

[16] = tested on: galium (catchweed bedstraw, Galium aparine); experiment: Test A postemergence galium; details: Galium, post-emergence, 240 h, 0 to 100 scale, 0 is no effect, 100 is complete control, read-out: Plant response rating, Galium; for pest or weed control at 125 g/ha: 125 g ai/ha; for pest or weed control at 500 g/ha: 500 g ai/ha
How it was run: as §1

[17] = tested on: rice (Oryza sativa); experiment: Test B flooded paddy test rice; details: Oryza sativa, Table B, Flood, 250 g ai/ha, scale 0 to 100, read-out: Plant response rating
How it was run: (§2)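 Plants at 2-leaf stage in pots flooded 3 cm above soil; compounds applied directly into paddy water, depth kept throughout.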

[18] = tested on: sedge, umbrella (small-flower umbrella sedge, Cyperus difformis); experiment: Test B flooded paddy test sedge, umbrella; details: Cyperus difformis, Table B, Flood, 250 g ai/ha, scale 0 to 100, read-out: Plant response rating
How it was run: as §2

[19] = tested on: ducksalad (Heteranthera limosa); experiment: Test B flooded paddy test ducksalad; details: Heteranthera limosa, Table B, Flood, 250 g ai/ha, scale 0 to 100, read-out: Plant response rating
How it was run: as §2

[20] = tested on: barnyardgrass (Echinochloa crus-galli); experiment: Test B flooded paddy test barnyardgrass; details: Echinochloa crus-galli, Table B, Flood, 250 g ai/ha, scale 0 to 100, read-out: Plant response rating
How it was run: as §2

SMILES	pest or weed control at 125 g/ha [1] [%]	pest or weed control at 500 g/ha [1] [%]	pest or weed control at 125 g/ha [2] [%]	pest or weed control at 500 g/ha [2] [%]	pest or weed control at 125 g/ha [3] [%]	pest or weed control at 500 g/ha [3] [%]	pest or weed control at 125 g/ha [4] [%]	pest or weed control at 500 g/ha [4] [%]	pest or weed control at 125 g/ha [5] [%]	pest or weed control at 500 g/ha [5] [%]	pest or weed control at 125 g/ha [6] [%]	pest or weed control at 500 g/ha [6] [%]	pest or weed control at 125 g/ha [7] [%]	pest or weed control at 500 g/ha [7] [%]	pest or weed control at 125 g/ha [8] [%]	pest or weed control at 500 g/ha [8] [%]	pest or weed control at 125 g/ha [9] [%]	pest or weed control at 500 g/ha [9] [%]	pest or weed control at 125 g/ha [10] [%]	pest or weed control at 500 g/ha [10] [%]	also measured
CN1CC[C@H](c2ccc(F)cc2)[C@@H](C(=O)Nc2ccccc2C(F)(F)F)C1=O [Compound 53, (3S,4S)-4-(4-fluorophenyl)-1-methyl-2-oxo-N-[2-(trifluoromethyl)phenyl]-3-piperidinecarboxamide]	0	80	0	0	0	0	0	0	0	90	0	50	0	0	0	0	0	0	0	0	pest or weed control at 125 g/ha [11]: 0%; pest or weed control at 500 g/ha [11]: 20%; pest or weed control at 125 g/ha [12]: 0%; pest or weed control at 500 g/ha [12]: 0%; plant injury at 125 g/ha [13]: 0%; plant injury at 500 g/ha [13]: 20%; Corn plant response rating (crop injury, 0 = no effect, 100 = complete kill) at 125 g/ha [14]: 0%; Corn plant response rating (crop injury, 0 = no effect, 100 = complete kill) at 500 g/ha [14]: 20%; pest or weed control at 125 g/ha [15]: 0%; pest or weed control at 500 g/ha [15]: 20%; pest or weed control at 125 g/ha [16]: 0%; pest or weed control at 500 g/ha [16]: 0%; plant injury at 250 g/ha [17]: 0%; pest or weed control at 250 g/ha [18]: 0%; pest or weed control at 250 g/ha [19]: 0%; pest or weed control at 250 g/ha [20]: 0%
O=C1NCC[C@H](c2ccc(F)cc2)[C@H]1C(=O)Nc1ccccc1C(F)(F)F [Compound 57, (3R,4S)-4-(4-fluorophenyl)-2-oxo-N-[2-(trifluoromethyl)phenyl]-3-piperidinecarboxamide]	30	70	0	0	0	0	0	0	60	90	0	0	0	70	0	0	0	0	0	0	pest or weed control at 125 g/ha [11]: 0%; pest or weed control at 500 g/ha [11]: 60%; pest or weed control at 125 g/ha [12]: 0%; pest or weed control at 500 g/ha [12]: 0%; plant injury at 125 g/ha [13]: 0%; plant injury at 500 g/ha [13]: 0%; Corn plant response rating (crop injury, 0 = no effect, 100 = complete kill) at 125 g/ha [14]: 0%; Corn plant response rating (crop injury, 0 = no effect, 100 = complete kill) at 500 g/ha [14]: 0%; pest or weed control at 125 g/ha [15]: 0%; pest or weed control at 500 g/ha [15]: 0%; pest or weed control at 125 g/ha [16]: 0%; pest or weed control at 500 g/ha [16]: 0%; plant injury at 250 g/ha [17]: 0%; pest or weed control at 250 g/ha [18]: 0%; pest or weed control at 250 g/ha [19]: 40%; pest or weed control at 250 g/ha [20]: 0%
